Test results taken from US20240307339A1, “NOVEL COMPOUNDS FOR THE TREATMENT AND PREVENTION OF NEUROLOGICAL COMPLICATIONS OF VIRAL INFECTIONS” (Sunregen Healthcare AG, priority 2021, published 2024).

What was measured:
[1] = tested on: Mouse hepatitis virus (MHV); test: mouse model of coronavirus infection (MHV infected mice); format: in vivo, C57BL/6J male mice; conditions: vs vehicle; for clinical score / clinical severity of virus induced neuropathology: 50 mg/kg, treatment started 3 days after virus infection till Day 21, P<0.05 on days 9, 10 or 14
Method: Tripentadecanoin was tested in a mouse model of coronavirus infection. The objective of this study was to investigate tripentadecanoin's therapeutic effects in MHV infected mice. Mouse hepatitis virus (MHV) causes acute infections of the murine liver and lungs and persistent infections of the gastrointestinal tract and central nervous system (CNS). […] This virus was named JHM virus (JHMV) and subsequently shown to be a coronavirus, related to other MHV strains (Bergmann, C., Lane, T. & Stohlman, S. Coronavirus infection of the central nervous system: host-virus stand-off. Nat Rev Microbiol 2006; 4:121-132.). JMHV is now broadly used to study virus-induced neurological diseases, particularly demyelination. It is considered to be a suitable model for coronavirus-induced neurological complication. CNS infection with MHV provides an animal model for acute viral-induced encephalomyelitis and the human demyelinating disease, multiple sclerosis. MHV-induced demyelinating disease is typified by mice, which control viral replication, but fail to fully clear virus. Acute infection induces CNS inflammation and initiates the demyelinating process. Animals that fail to control virus replication in a sufficiently rapid manner succumb to encephalomyelitis within 5-10 days. Survivors of acute infection typically eliminate infectious virus within two weeks. However, these animals still fail to achieve sterile immunity as evidenced by the persisting viral antigen (Ag) and RNA within the CNS. MHV persistence is associated with chronic CNS inflammation and ongoing primary demyelination.
20 C57BL/6J male mice of at 5 weeks of age were randomized into 2 groups of vehicle control or tripentadecanoin 50 mg/kg. Tripentadecanoin or vehicle control treatment was started 3 days after virus infection for a total of 19 days till Day 21. Clinical score of MHV infected mice was rated as: 0—asymptomatic; 1—limp tail; 2—wobbly gait with righting difficulty; 3—hind limb weakness and extreme righting difficulty; 4—hind limb paralysis; 5—moribund.

[2] = tested on: NMU-induced photoreceptor degeneration (retina); test: murine model of N-nitroso-N-methylurea (NMU) photoreceptor degeneration; format: in vivo, C57BL/6J mice; conditions: for outer nuclear layer (ONL) area under the curve (AUC -1.75 to +1.75 μm): H&E histology; for number of rows of photoreceptor nuclei: mid-peripheral region
Method: Eighteen 8-12-week-old female C57BL/6J mice were randomized into three groups: 1) NMU+vehicle; 2) NMU+Tripentadecanoin 20 mg/kg; 3) NMU+Tripentadecanoin 50 mg/kg. NMU at a dose of 50 mg/kg was injected i.p. to all mice; Tripentadecanoin (or vehicle) was administered daily via oral gavage starting 3 days before NMU and continuing until 7 days after NMU challenge. Retina were imaged by spectral domain optical coherence tomography (OCT) 5 days before exposing to NMU and 7 days after NMU. All eyes were collected and processed for histological hematoxylin and eosin (H&E) staining. The thicknesses of photoreceptors were measured from different locations on OCT images and H&E slides, respectively. Photoreceptor thickness on H&E slides were quantified using automated Leica software (Leica, Heerbrugg), operated by a single masked observer. Results were expressed as the outer nuclear layer (ONL) area under the curve (AUC −1.75 to +1.75 μm) and number of rows of photoreceptor nuclei.

[3] = tested on: Hsp104-GFP age-induced protein deposit; test: Hsp104-GFP age-induced protein deposit in old yeast cells (replicative ageing); format: cell-based, Saccharomyces cerevisiae; conditions: for proportion of cells with an Hsp104-GFP focus / proportion of cells with an Hsp104-GFP focus decreased: 30 μM
Excerpt: While yeast populations can be propagated ad libitum, the yeast mother cell has a finite lifespan and can only produce a certain amount of daughter cells, typically 25 for laboratory backgrounds. Mortality rate increases with the number of daughter cells produced, therefore this phenomenon is termed replicative ageing. In old yeast cells, age-induced protein deposits recruit a specific set of chaperones and co-chaperones.
Hsp104 expressed endogenously as a fusion to the green fluorescent protein tag (Hsp104-GFP) forms a focus in old cells. The presence (percentage of cells with an aggregate at a certain age), number (number of foci per cell) and size (fluorescent brightness) can be assessed on hundreds of cells and thus, this gives a good model for assessing the biology of age induced aggregates.
To test if tripentadecanoin is active in yeast, cells were treated with different concentrations of the purified compound (1 μM, 10 μM and 30 μM) as well as an extract (10 μg/ml) of the plant it is derived from (Ophioglossum thermale). These cells were let to age in the presence of the compound and after 10-11 generations, cells were imaged to count their age and assess whether they contained a Hsp104-GFP age-induced protein deposit or not (FIG. 3A).
(§1) Potential targets of the compound of formula (I) were identified by using RNAseq. The yeast cells (Saccharomyces cerevisiae) were treated with tripentadecanoin (30 μM) for 5 hours and the mRNA abundance of all genes in cells that were treated with the compound or vehicle only for 5 hours was quantitatively monitored. Samples in triplicate were processed by the company Genewiz. […] Among these hits is Yhb1, a flavohemoglobin that plays a role in nitrosative stress response (FIG. 4A). Following the results from the RNAseq survey, PH084, YHB1 or VTC4 were knocked out and the proportion of old cells with an Hsp104-GFP focus was measured, as before. While pho84Δ cells were similar to wild type cells, much more vtc4Δ and yhb1Δ mutant cells contained an age-induced deposit (FIG. 4A).

[4] = tested on: YHB1 (yeast homologue of neuroglobin) mRNA; test: RNAseq of yeast cells treated with tripentadecanoin; format: cell-based, Saccharomyces cerevisiae
Method: as §1

neuroglobin mRNA = test: Expression of neuroglobin in mouse primary cortical neurons (qPCR); format: cell-based, C57BL/6J mouse
Method: Healthy neurons preparation: primary mouse cortical neurons from embryonic day 16-17 were prepared from C57BL/6J mouse foetuses, resulting in 95-97% of neurons and 3-5% astrocytes. At DIV 5/6, mouse primary cortical neurons was treated for 3 h (T3) or 24 h (T24) with vehicle (ethanol) or increasing concentrations of tripentadecanoin (100 or 1000 nM). q PCRmethods used to amplify the mRNA of neuroglobin.
The amount and quality of RNA were evaluated using capillary electrophoresis. The complementary DNA (cDNA) was synthesized by reverse transcription of total RNA in presence of oligo(dT) and “Transcriptor reverse transcriptase” from Roche. The cDNA quantities were then adjusted before the PCRstep. The qPCRreactions were performed using the Licht Cycler system from Roche according to supplier instructions. In this experiment, Rps28 (Ribosomal protein S28) was used as a reference marker (also referred to as housekeeping gene).
The reaction mix (10 μL final) was prepared as follows: • 2.5 μL cDNA • Primers and TaqMan probe • Reagent mix containing taq DNA polymerase and MgCl2.
The following primers were used in this experiment: […]

## CCCCCCCCCCCCCCC(=O)OCC(COC(=O)CCCCCCCCCCCCCC)OC(=O)CCCCCCCCCCCCCC [tripentadecanoin]
[1]
  clinical score / clinical severity of virus induced neuropathology: reducing the clinical severity of virus induced neuropathology
[1]; listed as compound of the formula (I)
  clinical score / clinical severity of virus induced neuropathology: improved clinical score
[1]; mouse model of coronavirus infection
  weight loss of animals: reduced weight loss of animals
[2]; 20 mg/kg daily oral gavage, p<0.01 vs vehicle
  outer nuclear layer (ONL) area under the curve (AUC -1.75 to +1.75 μm): 73.58±14.45
[2]; 20 mg/kg, p<0.01 vs vehicle
  number of rows of photoreceptor nuclei: 6.4±1.2
[2]; 50 mg/kg daily oral gavage, p<0.001 vs vehicle
  outer nuclear layer (ONL) area under the curve (AUC -1.75 to +1.75 μm): 83.08±19.05
[2]; 50 mg/kg, p<0.001 vs vehicle
  number of rows of photoreceptor nuclei: 7.0±1.7
[2]; 50 mg/kg, peripheral (p<0.05), mid-peripheral (p<0.05) and central retina (p<0.01) vs vehicle
  neuroretinal thickness (OCT): significantly increased
[2]; OCT 7 days after NMU, vs control
  thickness of photoreceptor layers (in vivo OCT images): increased thickness of photoreceptor layers
[3]; 1 μM, 10 μM and 30 μM, after 10-11 generations, vs vehicle 0.3% ethanol
  cells containing a Hsp104-GFP age-induced protein deposit (focus): less likely to harbor a Hsp104-GFP focus
[3]; pho84Δ cells
  proportion of cells with an Hsp104-GFP focus: decreased
[3]; vtc4Δ mutant cells
  proportion of cells with an Hsp104-GFP focus decreased: this was not the case
[3]; wild type cells
  proportion of cells with an Hsp104-GFP focus: decreased
[3]; yeast cells, summary statement
  aggregation of HSP-104 (GFP-HSP104 loci): greatly reduced
[3]; yhb1Δ mutant cells
  proportion of cells with an Hsp104-GFP focus decreased: this was not the case
[4]; 30 μM, 5 hours, RNAseq, triplicate
  mRNAs significantly differentially expressed vs vehicle: 157
[4]; yeast cells treated with tripentadecanoin
  expression of YHB1: significantly increased
Neuroglobin mRNA; 1000 nM, 3 hours, p<0.001
  expression of neuroglobin vs vehicle control: significant increased expression of neuroglobin
Neuroglobin mRNA; mouse neurons, Example 4
  increase in the expression level of neuroglobin: approximately six-fold
